Reference: patent publication US11597738B2 (Mindset Pharma Inc., priority 2020, dated 2023)

Assays:
[1] = In vivo pharmacokinetics in rats; conditions: male Sprague-Dawley rats
Protocol: (§1) Male C57BL/6 mice (25-30 g) and male Sprague-Dawley rats (250-325 g) from Charles River Labs were acclimatized for a minimum of 5 days prior to dosing. Body weights were recorded on the day of dosing.
(§2) Animals dosed p.o. were deprived of food overnight and fed ˜2 h following dosing.
(§3) Formulations were administered intravenously (i.v.) via the tail vein or orally (p.o.) by gavage with disposable feeding needles.
(§4) Serial blood samples were collected via tail snip. Terminal blood samples were collected under isoflurane anesthesia by cardiac puncture.
(§5) All blood samples were transferred into K2EDTA tubes on wet ice and centrifuged within 5 min (3200×g for 5 min at 4° C.) to obtain plasma. Plasma was stored at −80° C. until analysis.
(§6) Mouse or Rat Plasma, as Applicable.
(§7) AB Sciex QTRAP 4000 or 6500 MS/MS system equipped with an LC system with a binary pump, a solvent degasser, a thermostatted column compartment and a multiplate autosampler. i. Analysis software: Phoenix® WinNonlin® 8.2 (Pharsight, Certara, Mountainview, Calif.) ii. Analysis methods: non-compartmental analysis, linear up/log down trapezoidal rule iii. PK parameters: C0, t1/2, AUC0-tlast. AUC0-∞, CL, Vss, MRT, tmax(po), Cmax(po), F, as appropriate

[2] = In vivo pharmacokinetics in mice; conditions: male C57BL/6 mice
Protocol: as §1, §2, §3, §4, §5, §6, §7

[3] = test system: head-twitch response (HTR) in male C57BL6 mice; assay: Mouse head twitch (HTR); format: in vivo, C57BL/6J mice; conditions: 0.3-10 mg/kg SC, measured over 1 h
Protocol: Data is expressed as mean+SEM. The induction of head twitches elicited by 5-HT2A receptor agonists is believed to represent a behavioural proxy of their psychedelic effects.
The effect of different doses of exemplary compounds of Formula I were evaluated on head-twitch response (HTR) as a behavior-based model of psychedelic activity.
Male, C57BL/6J mice (body weight range 20-30 g) were dosed with the appropriate dose of test article, and following a 1-minute pre-treatment time, placed in individual observation chambers. Animals were visually assessed for the incidence head twitches continuously over a 1 hr period. Head twitches were defined as a rapid jerk of the head which was not elicited by an external tactile stimulus (Corne and Pickering, Psychopharmacologia, 1967, 11(1): 65-78). Each head twitch was individually counted by a trained observer, and the data expressed as the mean+SEM of 6-10 mice per group. Mice were used in a single experiment only.

## [2H]C([2H])([2H])N(C([2H])([2H])[2H])C([2H])([2H])C([2H])([2H])c1c[nH]c2cccc(O)c12 [Compound I-45, 3-(2-(bis(methyl-d3)amino)ethyl-1,1,2,2-d4)-1H-indol-4-ol]
[1]; i.v., 0.3 mg/kg
  AUC0-inf/Dose: 181 ± 30.8 kg·ng·h/mL/mg
[1]; p.o.
  AUC0-inf/Dose: 181 ± 14.6 kg·ng·h/mL/mg
[1]; p.o., 3.0 mg/kg (title; dose row prints 10)
  Cmax/Dose: 79.2 ± 24.4 kg·ng/mL/mg
[1]; s.c., 0.3 mg/kg
  AUC0-inf/Dose: 120 ± 29.0 kg·ng·h/mL/mg
  Cmax/Dose: 101 ± 40.7 kg·ng/mL/mg
[1]; rat, plasma, iv, 0.3 mg/kg
  AUC(0-inf): 117 ± 11.5 ng·h/mL
  C0: 76.5 ± 7.49 ng/mL
[2]; i.v., 1 mg/kg
  AUC0-inf/Dose: 181 ± 30.8 kg·ng·h/mL/mg
[2]; p.o., 10 mg/kg
  AUC0-inf/Dose: 79.5 ± 12.1 kg·ng·h/mL/mg
  Cmax/Dose: 70.4 ± 12.8 kg·ng/mL/mg
[3]
  head twitch frequency compared to vehicle control: dose dependent increase in head twitch frequency
